Experimental data published in patent US20250154088A1, “PRODUCT 1,3-BUTYLENE GLYCOL” (KH Neochem Co., Ltd., priority 2022, published 2025).

What was measured:
[1] = Basic coloration test; type: physicochemical; settings: with water and potassium hydroxide, heat treatment at 90° C. for one hour, cooled to room temperature; spectral colorimeter
Description: The product 1, 3-butylene glycol in the present embodiment has an advantage of not easily coloring under a basic condition. Coloration under a basic condition can be evaluated by a method described in examples to be described below (basic coloration test). The color saturation (b*) of the CIE color space (JIS Z 8729) when the product 1, 3-butylene glycol of the present embodiment has been evaluated by the method is not particularly limited; however, for example, the average value of three times of measurement is preferably 4.0 or less, more preferably 3.8 or less and particularly preferably 3.5 or less.
The product 1, 3-butylene glycols obtained in Examples 1 to 3 and Comparative Example 1 were evaluated for coloration under a basic condition according to the following method.
13 g of water and 2 g of potassium hydroxide were added to a 100 mL heat-resistant medium bottle and mixed together, and 6 g of the product 1, 3-butylene glycol, which was a subject, was further added thereto. Next, the heat-resistant medium bottle was immersed in a water bath, and a heat treatment was performed at 90° C. for one hour. After the solution that had been subjected to the heat treatment was cooled to room temperature, the color saturation (b*) of the solution was measured with a spectral colorimeter SE2000 manufactured by Nippon Denshoku Industries Co., Ltd. and regarded as a grade.

[2] = system: cysteine-containing peptide for DPRA; experiment: Skin sensitization test (direct peptide reactivity assay, DPRA); settings: HPLC after 72±2 hours, relative value with result of Comparative Example 1 regarded as 100
Description: The product 1, 3-butylene glycol in the present embodiment causes less skin sensitization. Here, the skin sensitization refers to the occurrence of an allergic reaction after the product 1, 3-butylene glycol comes into contact with the skin. In the evaluation of skin sensitization, it has been normal to use experimental animals, but the direct peptide reactivity assay (DPRA), which is an in Chemico test, was adopted as an alternative test in OECD guideline TG442C in 2015 from the viewpoint of animal welfare, and, in the present embodiment as well, the skin sensitization is evaluated by a test in which DPRA is used. In more detail, the skin sensitization is evaluated according to a method described in examples to be described below.
The product 1, 3-butylene glycols obtained in Examples 1 to 3 and Comparative Example 1 were evaluated for skin sensitization according to the following method.
15 mg of cysteine-containing peptide for DPRA manufactured by Scrum Inc. and 30 mL of a 0.05 M phosphate buffer were mixed together, thereby preparing a 0.05 M phosphate buffer solution containing 0.667 mM of the peptide (hereinafter, peptide solution). After one hour elapsed from the preparation of the peptide solution, 750 μL of the peptide solution and 250 μL of acetonitrile were put into each of three brown sample bottles for HPLC, thereby preparing three reference solutions. After two hours elapsed from the preparation of the reference solutions, 750 μL of the peptide solution, 200 μL of acetonitrile and 50 μL of 1, 3-butylene glycol were put into a separate brown sample bottle for HPLC, thereby preparing a specimen solution (specimen solution 1). Furthermore, after four hours elapsed and six hours elapsed from the preparation of the reference solutions, specimen solutions were prepared by the same operation (specimen solution 2 and specimen solution 3). Each of the three reference solutions and the specimen solutions (specimen solution 1, specimen solution 2 and specimen solution 3) was measured by an HPLC analysis after 72±2 hours elapsed from the preparation of each solution, and the three-time average value of the peak heights of peptide in each of the reference solutions and the specimen solutions was calculated. A peptide reduction percentage was calculated from the calculated three-time average value using the following formula (3) and regarded as an evaluation result.
In the present test, a specimen solution of the product 1, 3-butylene glycol of Comparative Example 1 that served as a reference and a specimen solution of the product 1, 3-butylene glycol of each of Examples 1 to 3 were each tested on the same day from the viewpoint of reproducibility.
Analysis device: Agilent 1260 InfinityII manufactured by Agilent Technologies, Inc. […]

Row | Compound | Color saturation (b*) [1] | Relative value of peptide reduction percentage [2]
1 | CC(O)CCO (centres unmarked) [Comparative Example 1, 1,3-butylene glycol] | 19.6 | 100
2 | CC(O)CCO (centres unmarked) [Example 1, 1,3-butylene glycol] | 2.8 | 45
3 | CC(O)CCO (centres unmarked) [Example 2, 1,3-butylene glycol] | 3.2 | 43
4 | CC(O)CCO (centres unmarked) [Example 3, 1,3-butylene glycol] | 0.7 | 22
